Article PMC9435431, “Novel chemical entities inhibiting Mycobacterium tuberculosis growth identified by phenotypic high-throughput screening” (Scientific Reports, 2022)

Assays:
[1] = tested on: M. tuberculosis MmpL3 F255L mutant strain; type: cell-based, Mycobacterium tuberculosis
[2] = tested on: M. tuberculosis MmpL3 Y252C mutant strain; type: cell-based, Mycobacterium tuberculosis
[3] = tested on: M. tuberculosis MmpL3 G253E mutant strain; type: cell-based, Mycobacterium tuberculosis
[4] = tested on: M. tuberculosis MmpL3 Y252S mutant strain; type: cell-based, Mycobacterium tuberculosis
M. tuberculosis = type: cell-based
[5] = tested on: M. tuberculosis QcrB A396T mutant strain; type: cell-based, Mycobacterium tuberculosis

## O=C(NCCc1cccc(Br)c1)C1(c2cccc(Cl)c2)CCC1 [PCB-16, N-(3-bromophenethyl)-1-(3-chlorophenyl)cyclobutane-1-carboxamide]
[1]
  MmpL3 F255L MIC: 8.0 µM
[2]
  MmpL3 Y252C MIC: 43 µM
[3]
  MmpL3 G253E MIC: 75 µM
[4]
  MmpL3 Y252S MIC: 50 µM

## COc1ccc(-c2cc(N)nc(-n3nc(C)cc3C)n2)cc1 [PZP-1]
[1]
  Fold change: > 19
  IC90: > 100 µM

## CC(=O)c1ccc(NC(=O)NC(C)C23CC4CC(CC(C4)C2)C3)cc1 (stereo not shown) [HBU-3]
[1]
  Fold change: 2.4
  IC90: 71 µM

## O=C(O)C(F)(F)F.c1ccc2c(C3CCN(CC4CCCCC4)CC3)cccc2c1 [Molecule 4PP-31, 1-(Cyclohexylmethyl)-4-(1-naphthyl)piperidine; 2,2,2-trifluoroacetic acid]
[1]
  Fold change: 15
  IC90: 45 µM

## Cc1cc(NC2CCCCC2)nc(-n2nc(C)cc2C)n1 [PZP-3]
[1]
  Fold change: 10
  IC90: 46 µM

## O=C(O)C(F)(F)F.c1cc(C2CCN(CC3CCCCC3)CC2)ccn1 [Molecule 4PP-32, 4-[1-(Cyclohexylmethyl)-4-piperidyl]pyridine, 2,2,2-trifluoroacetic acid salt]
M. tuberculosis
  frequency of resistance: 7.35 × 10^−8

## CC1C(CNC(=O)Nc2ccccc2)CC2CC1C2(C)C (stereo not shown) [HBU-2]
[1]
  Fold change: 8.0
  IC90: 39 µM

## Cc1cc(C)n(-c2nc(N)cc(-c3cccc(F)c3)n2)n1 [PZP-2]
[1]
  Fold change: > 13
  IC90: > 100 µM

## CC(=O)n1nccc1-c1sc(-c2cccs2)nc1C [TPT]
[5]
  Fold-change: 8.9
  IC90: 63 µM
  activity against the QcrB mutant strain (in words): ≥ threefold lower activity

## CC(C)(C)CC(C)(C)N1CCC(c2ccccc2)CC1 [Molecule 4PP-44, 4-Phenyl-1-(1,1,3,3-tetramethyl-butyl)-piperidine]
[1]
  Fold change: 3.5
  IC90: 18 µM

## O=C(NCCc1ccc(Br)cc1)NC12CC3CC(CC(C3)C1)C2 [HBU-4]
[1]
  Fold change: > 8.3
  IC90: > 100 µM

## Cc1nc(-c2ccccn2)nc(NCCNc2ccc(C(F)(F)F)cn2)c1Cl [APDP-2]
[1]
  Fold change: 0.5
  IC90: 15 µM

## Cc1ccc(-c2nnc(C)c(N3CCCC3)n2)cc1 [PYT]
[5]
  Fold-change: 5.8
  IC90: 62 µM
  activity against the QcrB mutant strain (in words): ≥ threefold lower activity

## O=C(NCCc1cccc(Br)c1)C1(c2ccc(F)cc2)CCC1 [PCB-19, N-(3-bromophenethyl)-1-(4-fluorophenyl)cyclobutane-1-carboxamide]
[1]
  MmpL3 F255L MIC: 3 µM
M. tuberculosis
  frequency of resistance: 7.0 × 10^−8
[2]
  MmpL3 Y252C MIC: 45 µM
[3]
  MmpL3 G253E MIC: 20 µM
[4]
  MmpL3 Y252S MIC: 35 µM

## Cc1ccccc1C1(C(=O)NCCc2cccc(Br)c2)CCC1 [PCB-23, N-(3-bromophenethyl)-1-(o-tolyl)cyclobutane-1-carboxamide]
[1]
  MmpL3 F255L MIC: 8.0 µM
[2]
  MmpL3 Y252C MIC: 83 µM
[3]
  MmpL3 G253E MIC: 27 µM
[4]
  MmpL3 Y252S MIC: 82 µM

## CNc1cc(-c2ccccn2)nc(-c2ccccn2)n1 [APDP-1]
[1]
  Fold change: 0.9
  IC90: 9.2 µM

## CCC1(N2CCC(c3ccccc3)CC2)CCCCC1 [Molecule 4PP-1, 1-(1-Ethyl-cyclohexyl)-4-phenyl-piperidine]
[1]
  Fold change: 11
  IC90: 68 µM
  MmpL3 F255L MIC: 68 µM
[2]
  MmpL3 Y252C MIC: 30 µM
[3]
  MmpL3 G253E MIC: 91 µM
[4]
  MmpL3 Y252S MIC: 93 µM

## O=C(NCCc1cccc(Br)c1)C1(c2ccccc2Br)CCC1 [PCB-21, N-(3-bromophenethyl)-1-(2-bromophenyl)cyclobutane-1-carboxamide]
[1]
  MmpL3 F255L MIC: 22 µM
M. tuberculosis
  frequency of resistance: 5.26 × 10^−8
[2]
  MmpL3 Y252C MIC: 96 µM
[3]
  MmpL3 G253E MIC: 41 µM
[4]
  MmpL3 Y252S MIC: > 100 µM

## O=C(Nc1nc2ccccc2s1)NC1C2CC3CC(C2)CC1C3 (stereo not shown) [HBU-1]
[1]
  Fold change: 1.4
  IC90: 6 µM

## O=C(NCCc1cccc(Br)c1)C1(c2ccccc2Cl)CCC1 [PCB-17, N-(3-bromophenethyl)-1-(2-chlorophenyl)cyclobutane-1-carboxamide]
[1]
  MmpL3 F255L MIC: 9.0 µM
[2]
  MmpL3 Y252C MIC: 94 µM
[3]
  MmpL3 G253E MIC: 28 µM
[4]
  MmpL3 Y252S MIC: 87 µM

## Cc1nc(-c2ccccn2)nc(NCc2ccccc2)c1Cl [APDP-3]
[1]
  Fold change: 3.5
  IC90: 22 µM

## CC(NC(=O)Nc1nc(-c2ccc(Cl)cc2)cs1)C1CC2C=CC1C2 (stereo not shown) [HBU-5]
[1]
  Fold change: 0.5
  IC90: 6.9 µM
